Consider 13 compounds from US9447073B2, “Fungicidal compositions” (Viamet Pharmaceuticals, Inc., priority 2013, dated 2016).

Data set [1] has as its system Mycosphaerella graminicola (Anamorph: Septoria tritici; Bayer Code SEPTTR). Kind of data set: Fungicidal activity: Leaf Blotch of Wheat (SEPTTR), wheat seedlings in greenhouse. Format: in vivo. Set-up: key to Disease Control SEPTTR 1DP: A: 80-100; B: More than 0—Less than 80; C: Not Tested; D: No activity noticed in this bioassay. The conditions noted are these: wheat (variety Yuma); for pest or weed control at 50 ppm: Zymoseptoria tritici. The protocol:
(§1) Technical grades of materials were dissolved in acetone, which were then mixed with nine volumes of water containing 110 ppm Triton X-100. The fungicide solutions were applied onto wheat seedlings using an automated booth sprayer to run-off. All sprayed plants were allowed to air dry prior to further handling. Wheat plants (variety Yuma) were grown from seed in a greenhouse in 50% mineral soil/50% soil-less Metro mix until the first leaf was fully emerged, with 7-10 seedlings per pot. These plants were inoculated with an aqueous spore suspension of Septoria tritici either prior to or after fungicide treatments. After inoculation the plants were kept in 100% relative humidity (one day in a dark dew chamber followed by two to three days in a lighted dew chamber at 20° C.) to permit spores to germinate and infect the leaf. The plants were then transferred to a greenhouse set at 20° C. for disease to develop. When disease symptoms were fully expressed on the 1st leaves of untreated plants, infection levels were assessed on a scale of 0 to 100 percent disease severity. Percent disease control was calculated using the ratio of disease severity on treated plants relative to untreated plants.

Data set [2] has as its system Puccinia triticina (Synonym: Puccinia recondita f sp. tritici; Bayer Code PUCCRT). Kind of data set: Fungicidal activity: Wheat Brown Rust (PUCCRT), wheat seedlings in greenhouse. Format: in vivo. The conditions noted are these: wheat (variety Yuma). The protocol: Technical grades of materials were dissolved in acetone, which were then mixed with nine volumes of water containing 110 ppm Triton X-100. The fungicide solutions were applied onto wheat seedlings using an automated booth sprayer to run-off. All sprayed plants were allowed to air dry prior to further handling.
as §1, with “Wheat” for “Technical grades of materials were dissolved in acetone, which were then mixed with nine volumes of water containing 110 ppm Triton X-100. The fungicide solutions were applied onto wheat seedlings using an automated booth sprayer to run-off. All sprayed plants were allowed to air dry prior to further handling. Wheat”
Wheat plants (variety Yuma) were grown from seed in a greenhouse in 50% mineral soil/50% soil-less Metro mix until the first leaf was fully emerged, with 7-10 seedlings per pot. These plants were inoculated with an aqueous spore suspension of Puccinia triticina either prior to or after fungicide treatments. After inoculation the plants were kept in a dark dew room at 22° C. with 100% relative humidity overnight to permit spores to germinate and infect the leaf. The plants were then transferred to a greenhouse set at 24° C. for disease to develop. Fungicide formulation, application and disease assessment followed the procedures as described in Example 18.

Setting [3] is: 1DP, read-out: Disease Control SEPTTR 1DP.
Where [4] appears, read: 3DC, read-out: Disease Control SEPTTR 3DC.
The mark [5] stands for this setting: 1DC, read-out: Disease Control PUCCRT 1DC.
The mark [6] stands for this setting: 1DP, read-out: Disease Control PUCCRT 1DP.

Like-named read-outs stand apart in the source and are kept apart here.

`NC(=S)c1ccc(Oc2ccc(C(F)(F)C(O)(Cn3nn[nH]c3=S)c3ccc(F)cc3F)nc2)cc1` (centres unmarked) [Compound F1, 4-((6-(2-(2,4-difluorophenyl)-1,1-difluoro-2-hydroxy-3-(5-thioxo-4,5-dihydro-1H-tetrazol-)propyl)pyridin-3-yl)oxy)benzothioamide]: the melting point – broadly, the temperature, or range, at which the solid turns liquid – lay in the range of 214 to 218 °C. The pest or weed control at 50 ppm in data set [1] (setting [3]) lay in the range of 80 to 100%. Also, in data set [1] (setting [4]), the pest or weed control at 50 ppm lay in the range of 80 to 100%. In addition, in data set [2] (setting [5]), the pest or weed control at 50 ppm lay within 80 to 100%. In addition, the pest or weed control at 50 ppm in data set [2] (setting [6]) lay within 80 to 100%.
With `N#Cc1ccc(Oc2ccc(C(F)(F)C(O)(Cn3nn[nH]c3=S)c3ccc(F)cc3F)nc2)cc1` (centres unmarked) [Compound F2, 4-((6-(2-(2,4-difluorophenyl)-1,1-difluoro-2-hydroxy-3-(5-thioxo-4,5-dihydro-1H-tetrazol-)propyl)pyridin-3-yl)oxy)benzonitrile], the pest or weed control at 50 ppm in data set [1] (setting [3]), in data set [1] (setting [4]) and in data set [2] (setting [6]) was 80 to 100% in each case.
Take `N#Cc1ccc(Oc2ccc(C(F)(F)C(O)(Cn3nn[nH]c3=S)c3ccc(F)cc3F)nc2)nc1` (centres unmarked) [Compound F3]: the pest or weed control at 50 ppm in data set [1] (setting [3]) was 80 to 100%; in data set [1] (setting [4]), 0 to 80%; in data set [2] (setting [5]), 80 to 100%; in data set [2] (setting [6]) it was 80 to 100%.
In the case of `OC(Cn1nn[nH]c1=S)(c1ccc(F)cc1F)C(F)(F)c1ccc(Oc2ccc(Cl)cn2)cn1` (centres unmarked) [Compound F4], the pest or weed control at 50 ppm in data set [1] (setting [3]), in data set [1] (setting [4]), in data set [2] (setting [5]) and in data set [2] (setting [6]) was 80 to 100% each time.
As to `OC(Cn1nn[nH]c1=S)(c1ccc(F)cc1F)C(F)(F)c1ccc(OCC(F)(F)F)cn1` (centres unmarked) [Compound F5], the pest or weed control at 50 ppm in data set [1] (setting [3]), in data set [1] (setting [4]), in data set [2] (setting [5]) and in data set [2] (setting [6]) was 80 to 100% throughout.
`CSc1nnnn1CC(O)(c1ccc(F)cc1F)C(F)(F)c1ccc(Br)cn1` (centres unmarked) [Compound F6, 1-(5-bromopyridin-2-yl)-2-(2,4-difluorophenyl)-1,1-difluoro-3-(5-(methylthio)-1H-tetrazol-1-yl)propan-2-ol]: in data set [1] (50 ppm, 1DP), the “Disease Control SEPTTR 1DP” value was “D”. The figures for the pest or weed control at 50 ppm in data set [1] (setting [4]), in data set [2] (setting [5]) and in data set [2] (setting [6]) were 0 to 80%, 80 to 100% and 0 to 80%, respectively.
Regarding `CCSc1nnnn1CC(O)(c1ccc(F)cc1F)C(F)(F)c1ccc(Oc2ccc(C#N)cc2)cn1` (centres unmarked) [Compound F7], the pest or weed control at 50 ppm in data set [1] (setting [3]) is 0 to 80%; in data set [1] (setting [4]) it was 80 to 100%; in data set [2] (setting [5]) it was 80 to 100%; in data set [2] (setting [6]) it was 80 to 100%.
For `OC(Cn1nn[nH]c1=S)(c1ccc(F)cc1F)C(F)(F)c1ccc(Oc2ccc(C(F)(F)F)cn2)cn1` (centres unmarked) [Compound F8], the pest or weed control at 50 ppm in data set [1] (setting [3]), in data set [1] (setting [4]), in data set [2] (setting [5]) and in data set [2] (setting [6]) was 80 to 100% in each case.
In the case of `OC(Cn1nn[nH]c1=S)(c1ccc(F)cc1F)C(F)(F)c1ccc(COC(F)F)cn1` (centres unmarked) [Compound F9], the pest or weed control at 50 ppm in data set [1] (setting [3]), in data set [1] (setting [4]), in data set [2] (setting [5]) and in data set [2] (setting [6]) was 80 to 100% throughout.
In turn, `OC(Cn1nn[nH]c1=S)(c1ccc(F)cc1F)C(F)(F)c1ccc(OC2CC2(F)F)cn1` (centres unmarked) [Compound F10] displayed a melting point of 53 to 57 °C. Further, the pest or weed control at 50 ppm in data set [1] (setting [3]) was 80 to 100%. For the same compound, in data set [1] (setting [4]), the pest or weed control at 50 ppm lay in the range of 80 to 100%. Further, in data set [2] (setting [5]), the pest or weed control at 50 ppm is 80 to 100%. The pest or weed control at 50 ppm in data set [2] (setting [6]) was in the range of 80 to 100%.
Take `CSc1nnnn1CC(O)(c1ccc(F)cc1F)C(F)(F)c1ccc(Oc2ccc(C#N)cc2)cn1` (centres unmarked) [Compound F11, 4-((6-(2-(2,4-difluorophenyl)-1,1-difluoro-2-hydroxy-3-(5-(methylthio)-1H-tetrazol-1-yl)propyl)pyridin-3-yl)oxy)benzonitrile]: the pest or weed control at 50 ppm in data set [1] (setting [3]), in data set [1] (setting [4]) and in data set [2] (setting [6]) was 80 to 100% each time.
Consider `N#Cc1ccc(Oc2ccc(C(F)(F)C(O)(Cn3nnnc3SCc3ccccc3)c3ccc(F)cc3F)nc2)cc1` (centres unmarked) [Compound F12], for which the values for the pest or weed control at 50 ppm in data set [1] (setting [3]), in data set [1] (setting [4]) and in data set [2] (setting [6]) were 0 to 80%, 80 to 100% and 80 to 100%, respectively.
With `N#Cc1ccc(Oc2ccc(C(F)(F)C(O)(Cn3nnnc3SCC3CC3)c3ccc(F)cc3F)nc2)cc1` (centres unmarked) [Compound F13], the pest or weed control at 50 ppm in data set [1] (setting [3]), in data set [1] (setting [4]) and in data set [2] (setting [6]) was 80 to 100% throughout.
